Assay results reported in patent US5194433A, “Antibiotic C-3 catechol-substituted cephalosporin compounds, compositions and method of use thereof” (Bristol-Myers Squibb Company, priority 1990, dated 1993).
Converted amounts (≈) assume the structure as drawn. Like-named read-outs stand apart in the source and are kept apart here.

Columns and labels:
Assay in all cases: in vitro antibacterial activity, two-fold serial agar dilution in Mueller-Hinton agar (MIC)
Type in all cases: cell-based
[1] = test system: M. morganii (1), Ent. cloacae (2) and Ser. marcesens (2); conditions: Morganella morganii, read-out: Geometric mean of MIC
Excerpt: (§1) Table 3 lists the in vitro antibacterial activity of several representative compounds of the invention. The activity has been evaluated in terms of minimum inhibitory concentrations (MIC's) by a standard two-fold serial agar dilution method in Mueller-Hinton agar. The values are in geometric means of MIC's against the strains tested in each group. The activity of the known compound ceftazidime is also given for comparison.
GnII: M. morganii (1), Ent. cloacae (2) and Ser. marcesens (2)

[2] = test system: CETsensitive E. coli (3) and Kl. pneumoniae (2); conditions: Escherichia coli, read-out: Geometric mean of MIC
Excerpt: as §1
GnIb: CETsensitive E. coli (3) and Kl. pneumoniae (2)

[3] = test system: X. moltophilia; conditions: read-out: Geometric mean of MIC
Excerpt: as §1

[4] = test system: P. cepacia; conditions: Burkholderia cepacia; Pc, 2 strains; read-out: Geometric mean of MIC
Excerpt: as §1

[5] = test system: PCresistant S. aureus; conditions: Staphylococcus aureus; Gp-Ib, 5 strains, penicillin-resistant S. aureus; read-out: Geometric mean of MIC
Excerpt: as §1
GpIb: PCresistant S. aureus

[6] = test system: Ceftazidimesensitive P. aeruginosa; conditions: Pseudomonas aeruginosa, read-out: Geometric mean of MIC
Excerpt: as §1
Pa (S): Ceftazidimesensitive P. aeruginosa

[7] = test system: Cephalothin (CET)sensitive E. coli (2 strains), Kl. pneumoniae (1) and Pr. mirabilis (2); conditions: Gn-Ia, 5 strains, read-out: Geometric mean of MIC
Excerpt: as §1
GnIa: Cephalothin (CET)sensitive E. coli (2 strains), Kl. pneumoniae (1)

[8] = test system: Ceftazidimehighly resistant P. aeruginosa; conditions: Pseudomonas aeruginosa; Pa (HR), 8 strains, ceftazidime highly resistant; read-out: Geometric mean of MIC
Excerpt: as §1
Pa (HR): Ceftazidimehighly resistant P. aeruginosa

[9] = test system: Penicillin (PC)sensitive S. aureus; conditions: Staphylococcus aureus, Gp-Ia, 5 strains, read-out: Geometric mean of MIC
Excerpt: as §1
GpIa: Penicillin (PC)sensitive S. aureus

[10] = test system: Ceftazidimemoderately resistant P. aeruginosa; conditions: Pseudomonas aeruginosa, read-out: Geometric mean of MIC
Excerpt: as §1
Pa (MR): Ceftazidimemoderately resistant P. aeruginosa

[11] = Pa (S), 10 strains, ceftazidime-sensitive
[12] = Pa (MR), 8 strains, ceftazidime moderately resistant

| Compound | MIC ([1]; Gn-II, 5 strains) | MIC [2] | MIC ([3]; Xm, 4 strains) | MIC [4] | MIC [5] | MIC [6, 11] | MIC [7] | MIC [8] | MIC [9] | MIC [10] | MIC [6] | MIC [10, 12] | MIC [1] | MIC [3] |
| --- | --- | --- | --- | --- | --- | --- | --- | --- | --- | --- | --- | --- | --- | --- |
| CC(C)(O/N=C(\C(=O)NC1C(=O)N2C(C(=O)O)=C(Cn3cnc4cc(O)c(O)cc43)CS[C@H]12)c1csc(N)n1)C(=O)O (some centres unmarked) [Ia, 7-[(Z)-2-(2-Aminothiazol-4-yl)-2-(1-carboxy-1-methylethoxyimino)acetamido]-3-(5,6-dihydroxybenzimidazol-1-yl)methyl-3-cephem-4-carboxylic acid] | 1.6 µg/mL (≈ 2.59 µM) | 0.8 µg/mL (≈ 1.3 µM) | 3.1 µg/mL (≈ 5.02 µM) | 12.5 µg/mL (≈ 20.2 µM) | 50 µg/mL (≈ 81 µM) | 0.14 µg/mL (≈ 0.227 µM) | 0.61 µg/mL (≈ 0.988 µM) | 0.37 µg/mL (≈ 0.599 µM) | 50 µg/mL (≈ 81 µM) | 0.47 µg/mL (≈ 0.761 µM) | – | – | – | – |
| CC(C)(O/N=C(\C(=O)NC1C(=O)N2C(C(=O)O)=C(Cn3ccc4ccc(O)c(=O)c-4c3)CS[C@H]12)c1csc(N)n1)C(=O)O (some centres unmarked) [Ib, 7-[(Z)-2-(2-Aminothiazol-4-yl)-2-(1-carboxy-1-methylethoxyimino)acetamido]-3-(2,8-dihydro-7-hydroxy-8-oxo-isoquinolin-2-yl)methyl-3-cephem-4-carboxylic acid] | 2.4 µg/mL (≈ 3.82 µM) | 0.8 µg/mL (≈ 1.27 µM) | 12.5 µg/mL (≈ 19.9 µM) | 8.9 µg/mL (≈ 14.2 µM) | > 100 µg/mL | – | 0.6 µg/mL (≈ 0.954 µM) | 2.6 µg/mL (≈ 4.14 µM) | 100 µg/mL (≈ 159 µM) | – | 1.2 µg/mL (≈ 1.91 µM) | 2.9 µg/mL (≈ 4.61 µM) | – | – |
| CC(C)(O/N=C(\C(=O)NC1C(=O)N2C(C(=O)O)=C(Cn3cc4cc(O)c(=O)cc-4cn3)CS[C@H]12)c1csc(N)n1)C(=O)O (some centres unmarked) [Ic, 7-[(Z)-2-(2-Aminothiazol-4-yl)-2-(1-carboxy-1methylethoxyimino)acetamido]-3-(2,6-dihydro-7-hydroxy-6-oxophthalazin-2-yl)methyl-3-cephem-4-carboxylic acid] | 0.4 µg/mL (≈ 0.635 µM) | 0.033 µg/mL (≈ 0.0524 µM) | 6.3 µg/mL (≈ 10 µM) | 0.57 µg/mL (≈ 0.905 µM) | 33 µg/mL (≈ 52.4 µM) | 0.033 µg/mL (≈ 0.0524 µM) | 0.11 µg/mL (≈ 0.175 µM) | 0.73 µg/mL (≈ 1.16 µM) | 25 µg/mL (≈ 39.7 µM) | – | – | 0.37 µg/mL (≈ 0.588 µM) | – | – |
| C[n+]1cn(CC2=C(C(=O)[O-])N3C(=O)C(NC(=O)C(=NOC(C)(C)C(=O)O)c4csc(N)n4)C3SC2)c2cc(O)c(O)cc21 (centres unmarked) [Id, 7-[(Z)-2-(2-Aminothiazol-4-yl)-2-(1-carboxy-1-methylethoxyimino)acetamido]-3-(5,6-dihydroxy-3-methylbenzimidazol-3-io-1-yl)methyl-3-cephem-4-carboxylate] | – | 0.15 µg/mL (≈ 0.237 µM) | 0.8 µg/mL (≈ 1.27 µM) | 3.2 µg/mL (≈ 5.07 µM) | 33 µg/mL (≈ 52.2 µM) | 0.057 µg/mL (≈ 0.0902 µM) | 0.044 µg/mL (≈ 0.0697 µM) | 0.18 µg/mL (≈ 0.285 µM) | 25 µg/mL (≈ 39.6 µM) | – | – | 0.31 µg/mL (≈ 0.491 µM) | 0.15 µg/mL (≈ 0.237 µM) | – |
| CC(C)(O/N=C(\C(=O)N[C@@H]1C(=O)N2C(C(=O)[O-])=C(C[n+]3ccccc3)CS[C@H]12)c1csc(N)n1)C(=O)O [ceftazidime, reference compound] | – | 0.3 µg/mL (≈ 0.549 µM) | – | 18 µg/mL (≈ 32.9 µM) | 12.5 µg/mL (≈ 22.9 µM) | – | 0.17 µg/mL (≈ 0.311 µM) | 65 µg/mL (≈ 119 µM) | 6.3 µg/mL (≈ 11.5 µM) | – | 1.2 µg/mL (≈ 2.2 µM) | 14 µg/mL (≈ 25.6 µM) | 0.91 µg/mL (≈ 1.66 µM) | 71 µg/mL (≈ 130 µM) |
